# Test system: Zymoseptoria tritici
# Assay: Leaf Blotch of Wheat (SEPTTR) fungicidal activity
# Assay type: in vivo
# Settings: 24 h, High Volume application, 100 ppm, wheat leaf blotch, 1 day protectant, read-out: SEPTTR disease control, 1DP (1 Day Protectant)
# Method: Example A: Evaluation of Fungicidal Activity: Leaf Blotch of Wheat (Zymoseptoria tritici; Bayer Code […]) Technical grades of materials were dissolved in acetone, which were then mixed with nine volumes of H2O containing 110 ppm Triton X-100. The fungicide solutions were applied onto wheat seedlings using an automated booth sprayer to run-off. All sprayed plants were allowed to air dry prior to further handling. All fungicides were evaluated using the aforementioned method for their activity vs. all target diseases, unless stated otherwise. Wheat leaf blotch and brown rust activity were also evaluated using track spray applications, in which case the fungicides were formulated as EC formulations, containing 0.1% Trycol 5941 in the spray solutions. Wheat plants (variety Yuma) were grown from seed in a greenhouse in 50% mineral soil/50% soil-less Metro mix until the first leaf was fully emerged, with 7-10 seedlings per pot. These plants were inoculated with an aqueous spore suspension of Zymoseptoria tritici either prior to or after fungicide treatments. After inoculation the plants were kept in 100% relative humidity (one day in a dark dew chamber followed by two to three days in a lighted dew chamber at 20° C.) to permit spores to germinate and infect the leaf. The plants were then transferred to a greenhouse set at 20° C. for disease to develop. When disease symptoms were fully expressed on the 1st leaves of untreated plants, infection levels were assessed on a scale of 0 to 100 percent disease severity. Percent disease control was calculated using the ratio of disease severity on treated plants relative to untreated plants.
row,SMILES,pest or weed control at 100 ppm [%]
1,COc1ccnc(C(=O)N[C@H]2CCCC[C@H](OC)[C@@H](Oc3ccccc3)[C@H](C)OC2=O)c1OCOC(C)=O [Compound 11],> 80
2,COc1ccnc(C(=O)N[C@H]2CCCC[C@H](OC)[C@@H](OCC(C)C)[C@H](C)OC2=O)c1OCOC(C)=O [Compound 12],> 80
3,COc1ccnc(C(=O)N[C@H]2CCCC[C@H](OCC(C)C)[C@@H](Oc3ccccc3)[C@H](C)OC2=O)c1OCOC(C)=O [Compound 13],> 80
4,COc1ccnc(C(=O)N[C@H]2CCCC[C@H](OCC(C)C)[C@@H](OCC(C)C)[C@H](C)OC2=O)c1OCOC(C)=O [Compound 14],> 80
5,CCCCCO[C@H]1[C@H](C)OC(=O)[C@@H](NC(=O)c2nccc(OC)c2OCOC(C)=O)CCCC[C@@H]1OC(=O)c1ccccc1 [Compound 15],> 80
6,COc1ccnc(C(=O)N[C@H]2CCOC[C@H](Cc3ccccc3)[C@@H](OCC(C)C)[C@H](C)OC2=O)c1OCOC(C)=O [Compound 16],> 80

# Same assay, conditions: 24 h, Low Volume application, 121.5 g/H, wheat leaf blotch, 1 day protectant, read-out: SEPTTR disease control, 1DP (1 Day Protectant)
row,SMILES,pest or weed control at 121.5 g/ha [%]
1,COc1ccnc(C(=O)N[C@H]2CCCC[C@H](OC)[C@@H](Oc3ccccc3)[C@H](C)OC2=O)c1OCOC(C)=O [Compound 11],> 80
2,COc1ccnc(C(=O)N[C@H]2CCCC[C@H](OCC(C)C)[C@@H](Oc3ccccc3)[C@H](C)OC2=O)c1OCOC(C)=O [Compound 13],> 80
3,COc1ccnc(C(=O)N[C@H]2CCCC[C@H](OCC(C)C)[C@@H](OCC(C)C)[C@H](C)OC2=O)c1OCOC(C)=O [Compound 14],> 80
4,CCCCCO[C@H]1[C@H](C)OC(=O)[C@@H](NC(=O)c2nccc(OC)c2OCOC(C)=O)CCCC[C@@H]1OC(=O)c1ccccc1 [Compound 15],> 80
5,COc1ccnc(C(=O)N[C@H]2CCOC[C@H](Cc3ccccc3)[C@@H](OCC(C)C)[C@H](C)OC2=O)c1OCOC(C)=O [Compound 16],< 80

# Same assay, conditions: 72 h, High Volume application, 100 ppm, wheat leaf blotch, 3 day curative, read-out: SEPTTR disease control, 3DC (3 Day Curative)
row,SMILES,pest or weed control at 100 ppm [%]
1,COc1ccnc(C(=O)N[C@H]2CCCC[C@H](OC)[C@@H](Oc3ccccc3)[C@H](C)OC2=O)c1OCOC(C)=O [Compound 11],> 80
2,COc1ccnc(C(=O)N[C@H]2CCCC[C@H](OC)[C@@H](OCC(C)C)[C@H](C)OC2=O)c1OCOC(C)=O [Compound 12],> 80
3,COc1ccnc(C(=O)N[C@H]2CCCC[C@H](OCC(C)C)[C@@H](Oc3ccccc3)[C@H](C)OC2=O)c1OCOC(C)=O [Compound 13],> 80
4,COc1ccnc(C(=O)N[C@H]2CCCC[C@H](OCC(C)C)[C@@H](OCC(C)C)[C@H](C)OC2=O)c1OCOC(C)=O [Compound 14],> 80
5,CCCCCO[C@H]1[C@H](C)OC(=O)[C@@H](NC(=O)c2nccc(OC)c2OCOC(C)=O)CCCC[C@@H]1OC(=O)c1ccccc1 [Compound 15],> 80
6,COc1ccnc(C(=O)N[C@H]2CCOC[C@H](Cc3ccccc3)[C@@H](OCC(C)C)[C@H](C)OC2=O)c1OCOC(C)=O [Compound 16],< 80

# Same assay, conditions: 72 h, Low Volume application, 121.5 g/H, wheat leaf blotch, 3 day curative, read-out: SEPTTR disease control, 3DC (3 Day Curative)
row,SMILES,pest or weed control at 121.5 g/ha [%]
1,COc1ccnc(C(=O)N[C@H]2CCCC[C@H](OC)[C@@H](Oc3ccccc3)[C@H](C)OC2=O)c1OCOC(C)=O [Compound 11],> 80
2,COc1ccnc(C(=O)N[C@H]2CCCC[C@H](OCC(C)C)[C@@H](Oc3ccccc3)[C@H](C)OC2=O)c1OCOC(C)=O [Compound 13],> 80
3,COc1ccnc(C(=O)N[C@H]2CCCC[C@H](OCC(C)C)[C@@H](OCC(C)C)[C@H](C)OC2=O)c1OCOC(C)=O [Compound 14],< 80
4,CCCCCO[C@H]1[C@H](C)OC(=O)[C@@H](NC(=O)c2nccc(OC)c2OCOC(C)=O)CCCC[C@@H]1OC(=O)c1ccccc1 [Compound 15],> 80
5,COc1ccnc(C(=O)N[C@H]2CCOC[C@H](Cc3ccccc3)[C@@H](OCC(C)C)[C@H](C)OC2=O)c1OCOC(C)=O [Compound 16],< 80

# Test system: Puccinia triticina
# Assay: Wheat Brown Rust (PUCCRT) fungicidal activity
# Assay type: in vivo
# Settings: 24 h, High Volume application, 100 ppm, 1 day protectant, read-out: PUCCRT disease control, 1DP (1 Day Protectant)
# Method: Technical grades of materials were dissolved in acetone, which were then mixed with nine volumes of H2O containing 110 ppm Triton X-100. The fungicide solutions were applied onto wheat seedlings using an automated booth sprayer to run-off. All sprayed plants were allowed to air dry prior to further handling. All fungicides were evaluated using the aforementioned method for their activity vs. all target diseases, unless stated otherwise. Wheat leaf blotch and brown rust activity were also evaluated using track spray applications, in which case the fungicides were formulated as EC formulations, containing 0.1% Trycol 5941 in the spray solutions. Wheat plants (variety Yuma) were grown from seed in a greenhouse in 50% mineral soil/50% soil-less Metro mix until the first leaf was fully emerged, with 7-10 seedlings per pot. These plants were inoculated with an aqueous spore suspension of Zymoseptoria tritici either prior to or after fungicide treatments. After inoculation the plants were kept in 100% relative humidity (one day in a dark dew chamber followed by two to three days in a lighted dew chamber at 20° C.) to permit spores to germinate and infect the leaf. The plants were then transferred to a greenhouse set at 20° C. for disease to develop. When disease symptoms were fully expressed on the 1st leaves of untreated plants, infection levels were assessed on a scale of 0 to 100 percent disease severity. Percent disease control was calculated using the ratio of disease severity on treated plants relative to untreated plants. Example B: Evaluation of Fungicidal Activity: Wheat Brown Rust (Puccinia triticina; Bayer Code PUCCRT) Wheat plants (variety Yuma) were grown from seed in a greenhouse in 50% mineral soil/50% soil-less Metro mix until the first leaf was fully emerged, with 7-10 seedlings per pot. These plants were inoculated with an aqueous spore suspension of Puccinia triticina either prior to or after fungicide treatments. After inoculation the plants were kept in a dark dew room at 22° C. with 100% relative humidity overnight to permit spores to germinate and infect the leaf. The plants were then transferred to a greenhouse set at 24° C. for disease to develop. Fungicide formulation, application and disease assessment followed the procedures as described in the Example A.
row,SMILES,pest or weed control at 100 ppm [%]
1,COc1ccnc(C(=O)N[C@H]2CCCC[C@H](OC)[C@@H](Oc3ccccc3)[C@H](C)OC2=O)c1OCOC(C)=O [Compound 11],> 80
2,COc1ccnc(C(=O)N[C@H]2CCCC[C@H](OC)[C@@H](OCC(C)C)[C@H](C)OC2=O)c1OCOC(C)=O [Compound 12],> 80
3,COc1ccnc(C(=O)N[C@H]2CCCC[C@H](OCC(C)C)[C@@H](Oc3ccccc3)[C@H](C)OC2=O)c1OCOC(C)=O [Compound 13],> 80
4,COc1ccnc(C(=O)N[C@H]2CCCC[C@H](OCC(C)C)[C@@H](OCC(C)C)[C@H](C)OC2=O)c1OCOC(C)=O [Compound 14],> 80
5,CCCCCO[C@H]1[C@H](C)OC(=O)[C@@H](NC(=O)c2nccc(OC)c2OCOC(C)=O)CCCC[C@@H]1OC(=O)c1ccccc1 [Compound 15],> 80
6,COc1ccnc(C(=O)N[C@H]2CCOC[C@H](Cc3ccccc3)[C@@H](OCC(C)C)[C@H](C)OC2=O)c1OCOC(C)=O [Compound 16],> 80

# Same assay, conditions: 24 h, Low Volume application, 121.5 g/H, 1 day protectant, read-out: PUCCRT disease control, 1DP (1 Day Protectant)
row,SMILES,pest or weed control at 121.5 g/ha [%]
1,COc1ccnc(C(=O)N[C@H]2CCCC[C@H](OC)[C@@H](Oc3ccccc3)[C@H](C)OC2=O)c1OCOC(C)=O [Compound 11],> 80
2,COc1ccnc(C(=O)N[C@H]2CCCC[C@H](OCC(C)C)[C@@H](Oc3ccccc3)[C@H](C)OC2=O)c1OCOC(C)=O [Compound 13],> 80
3,COc1ccnc(C(=O)N[C@H]2CCCC[C@H](OCC(C)C)[C@@H](OCC(C)C)[C@H](C)OC2=O)c1OCOC(C)=O [Compound 14],> 80
4,CCCCCO[C@H]1[C@H](C)OC(=O)[C@@H](NC(=O)c2nccc(OC)c2OCOC(C)=O)CCCC[C@@H]1OC(=O)c1ccccc1 [Compound 15],> 80
5,COc1ccnc(C(=O)N[C@H]2CCOC[C@H](Cc3ccccc3)[C@@H](OCC(C)C)[C@H](C)OC2=O)c1OCOC(C)=O [Compound 16],> 80

# Same assay, conditions: 72 h, High Volume application, 100 ppm, 3 day curative, read-out: PUCCRT disease control, 3DC (3 Day Curative)
row,SMILES,pest or weed control at 100 ppm [%]
1,COc1ccnc(C(=O)N[C@H]2CCCC[C@H](OC)[C@@H](Oc3ccccc3)[C@H](C)OC2=O)c1OCOC(C)=O [Compound 11],> 80
2,COc1ccnc(C(=O)N[C@H]2CCCC[C@H](OC)[C@@H](OCC(C)C)[C@H](C)OC2=O)c1OCOC(C)=O [Compound 12],> 80
3,COc1ccnc(C(=O)N[C@H]2CCCC[C@H](OCC(C)C)[C@@H](Oc3ccccc3)[C@H](C)OC2=O)c1OCOC(C)=O [Compound 13],> 80
4,COc1ccnc(C(=O)N[C@H]2CCCC[C@H](OCC(C)C)[C@@H](OCC(C)C)[C@H](C)OC2=O)c1OCOC(C)=O [Compound 14],> 80
5,CCCCCO[C@H]1[C@H](C)OC(=O)[C@@H](NC(=O)c2nccc(OC)c2OCOC(C)=O)CCCC[C@@H]1OC(=O)c1ccccc1 [Compound 15],> 80
6,COc1ccnc(C(=O)N[C@H]2CCOC[C@H](Cc3ccccc3)[C@@H](OCC(C)C)[C@H](C)OC2=O)c1OCOC(C)=O [Compound 16],> 80

# Same assay, conditions: 72 h, Low Volume application, 121.5 g/H, 3 day curative, read-out: PUCCRT disease control, 3DC (3 Day Curative)
row,SMILES,pest or weed control at 121.5 g/ha [%]
1,COc1ccnc(C(=O)N[C@H]2CCCC[C@H](OC)[C@@H](Oc3ccccc3)[C@H](C)OC2=O)c1OCOC(C)=O [Compound 11],> 80
2,COc1ccnc(C(=O)N[C@H]2CCCC[C@H](OCC(C)C)[C@@H](Oc3ccccc3)[C@H](C)OC2=O)c1OCOC(C)=O [Compound 13],> 80
3,COc1ccnc(C(=O)N[C@H]2CCCC[C@H](OCC(C)C)[C@@H](OCC(C)C)[C@H](C)OC2=O)c1OCOC(C)=O [Compound 14],< 80
4,CCCCCO[C@H]1[C@H](C)OC(=O)[C@@H](NC(=O)c2nccc(OC)c2OCOC(C)=O)CCCC[C@@H]1OC(=O)c1ccccc1 [Compound 15],< 80
5,COc1ccnc(C(=O)N[C@H]2CCOC[C@H](Cc3ccccc3)[C@@H](OCC(C)C)[C@H](C)OC2=O)c1OCOC(C)=O [Compound 16],< 80

# — US20180002319A1, “MACROCYCLIC PICOLINAMIDE COMPOUNDS WITH FUNGICIDAL ACTIVITY” (DOW AGROSCIENCES LLC, priority 2014, published 2018)
